Results on two compounds are retold here after patent publication US12642856B2, “Degraders of hepatitis C virus NS3/4A protein” (DANA-FARBER CANCER INSTITUTE, INC., priority 2018, dated 2026).

Assay [1] addresses T1, full-length HCV NS3 protein fused to eGFP (UniProt P27958+Q96SW2).
T1 construct: expressing the full-length HCV NS3 protein fused to eGFP; mCherry via FMVD 2A self-cleavage linker (C, cleaved yes); expressed in transfected cells
Kind of assay: Transient cellular HCV NS3 degradation assay. Format: cell-based, Hepatitis C virus. The note with it: 4 hour treatment. The text has this: A system was set up to monitor NS3 degradation in the absence of other processes of the infectious viral cycle. […] Expressed in the absence of its cofactor, NS4A, the NS3 protein lacks any enzymatic activity, and the abundance of the NS3-eGFP fusion protein can be reliably monitored by eGFP fluorescence. Since the mCherry portion of the fusion protein is cleaved off during translation, its abundance in cells is not affected by small molecule-induced degradation of NS3-eGFP, and thus it serves as a control for protein expression. […]
The NS3 expressing cells were treated with increasing concentrations of compounds 13 and 22 for 4 hours. […] Compound 11 is an alpha-hydroxylamide analog of compound 13 that cannot form a covalent bond with the catalytic serine of the HCV NS3/4A protease due to a modification of the α-ketoamide group. […] The NS3 expressing cells were treated with increasing concentrations of compounds for 4 hours.

Another assay deals with T2, HCV NS3 fusion protein (UniProt P27958+Q96SW2).
T2 construct: expressing the full-length HCV NS3 protein fused to eGFP; mCherry via FMVD 2A self-cleavage linker (C, cleaved yes); expressed in transfected cells
The experiment in a line: NS3 degradation competition assay with lenalidomide. Format: cell-based, Hepatitis C virus. The note with it: excess of cereblon ligand lenalidomide; Western blot. An excerpt: The expression of the NS3 fusion protein was induced prior to the treatment of the NS3 expressing cells with an excess of the cereblon ligand lenalidomide.
FIG. 3 is a photograph of a Western blot showing degradation of HCV NS3 in the absence and presence of lenalidomide.
Background: Immunoblotting shows a protein as a band on a membrane.

In another assay the test system is HCV in Huh7.5 cells. The experiment in a line: Antiviral infectious assay (TCID50). The assay is classed as cell-based, Hepatitis C virus. The note with it: for IC50: Hepatitis C virus, read-out: IC50, 50% reduction in viral titers. On the procedure:
(§1) The antiviral activity of the degraders was evaluated in cell culture in a subgenomic replicon assay and an infectious assay. In the subgenomic replicon assay, the hepatoma cell line Huh7.5 was transfected with a HCV subgenomic replicon and treated with small molecules. The luciferase activity encoded by the subgenomic replicon served as a measure for viral replication. In the infectious assay, Huh7.5 cells were infected with HCV, and treated with small molecules. The amount of infectious virus released to the supernatants after treatment with the small molecule degraders served as a measure for their antiviral activity. […] The activity of the compounds described herein is dependent on protein degradation mediated by the cereblon E3 ligase, as HCV NS3 levels are partially rescued in the cereblon-deficient Huh7.5 cell line.
Huh7.5 cells were infected with HCV and treated after 24 hours with a range of small molecule concentrations. The amount of infectious virus released to the supernatants at 48 hours post-infection/24 hours post-treatment was measured using a 50% tissue infectious dose (TCID50) assay. The concentration of compound that led to a 50% reduction in viral titers (IC50) was determined by non-linear regression.

Another assay deals with wildtype HCV. The experiment in a line: Viral resistance assay, wildtype HCV. The assay is classed as cell-based. The note with it: Hepatitis C virus, Huh7.5, read-out: IC50, 50% reduction in viral titers. How it is done: (§2) Mutations A156S and V55A, two well-characterized resistance mutations that are located in the active site of the HCV NS3 protease where telaprevir binds, were selected. Infectious HCV clones bearing the NS3-V55A mutation or the NS3-A156S mutation were generated.
(§3) Huh7.5 cells were infected with wildtype HCV, or the telaprevir-resistant mutant viruses, HCV(NS3-V55A) and HCV(NS3-A156S). Cells were treated 24 hours after infection with a range of small molecule concentrations. The amount of infectious virus released to the supernatants at 48 hours post-infection/24 hours post-treatment was measured using a 50% tissue infectious dose (TCID50) assay. The concentration of compound that led to a 50% reduction in viral titers (IC50) was determined by non-linear regression.

A further assay concerns HCV(NS3-V55A). Kind of assay: Viral resistance assay, HCV(NS3-V55A). The assay is classed as cell-based, Hepatitis C virus. On the procedure: as §2, §3
The subject of a further assay is HCV(NS3-A156S). Kind of assay: Viral resistance assay, HCV(NS3-A156S). The assay is classed as cell-based, Hepatitis C virus. How it is done: as §2, §3
The subject of assay [2] is HCV subgenomic replicon in Huh7.5 cells. The experiment in a line: Antiviral subgenomic replicon assay. Format: cell-based. The note with it: Hepatitis C virus, Huh7.5, 48 h, read-out: IC50, 50% reduction in reporter (luciferase) expression levels. On the procedure: as §1
Huh7.5 cells were electroporated with the HCV subgenomic replicon and treated after 24 hours with a range of small molecule concentrations. The luciferase activity encoded by the replicon was measured in cells at 48 hours post-electroporation/24 hours post-treatment. The concentration of compound that led to a 50% reduction in reporter expression levels (IC50) was determined by non-linear regression.
Background: Replicon systems follow genome replication, usually without infectious particles.

Where two headings read alike, the source gives them in different places.

`CCC[C@H](NC(=O)[C@@H]1[C@H]2CCC[C@H]2CN1C(=O)[C@@H](NC(=O)[C@@H](NC(=O)c1cnc(C(=O)NCCOCCOCCOc2cc3c4c(cccc4c2)C(=O)N(C2CCC(=O)NC2=O)C3=O)cn1)C1CCCCC1)C(C)(C)C)C(=O)C(=O)NC1CC1` (stereo partly drawn) [Compound 13, N2-((S)-1-cyclohexyl-2-((S)-1-((1S,3aR,6aS)-1-((S)-1-(cyclopropylamino)-1,2-dioxohexan-3-ylcarbamoyl)hexahydrocyclopenta[c]pyrrol-2(1H)-yl)-3,3-dimethyl-1-oxobutan-2-ylamino)-2-oxoethyl)-N5-(2-(2-(2-(2-(2,6-dioxopiperidin-3-yl)-1,3-dioxo-2,3-dihydro-1H-benzo[de]isoquinolin-5-yloxy)ethoxy)ethoxy)ethyl)pyrazine-2,5-dicarboxamide]: the DC50 in assay [1] (read-out: IC50, concentration that led to a 50% reduction in NS3-eGFP accumulation, flow cytometry) came out at 50 nM. The “effect of lenalidomide on compound-induced degradation of NS3” value at HCV NS3 fusion protein is “Lenalidomide inhibited degradation of NS3”. Moreover, the IC50 in the assay on HCV in Huh7.5 cells (Huh7.5 cells, 48 hours post-infection/24 hours post-treatment, TCID50) was determined as 744 nM; with wildtype HCV it was 522 nM; in the assay with HCV(NS3-V55A) (read-out: IC50, 50% reduction in viral titers, HCV(NS3-V55A), Huh7.5, TCID50), 508 nM; in the assay with HCV(NS3-A156S) (read-out: IC50, 50% reduction in viral titers, HCV(NS3-A156S), Huh7.5, TCID50), 1560 nM. Also, the “antiviral activity compared with telaprevir” value in the assay with HCV in Huh7.5 cells (subgenomic replicon and infectious assays, Huh7.5) is recorded as “antiviral potency close to that of the parental compound”. In addition, the “change in antiviral potency, NS3-A156S vs wildtype” value with HCV(NS3-A156S) is reported as 3 fold.
Consider `CCC[C@H](NC(=O)[C@@H]1[C@H]2CCC[C@H]2CN1C(=O)[C@@H](NC(=O)[C@@H](NC(=O)c1cnccn1)C1CCCCC1)C(C)(C)C)C(=O)C(=O)NC1CC1` [telaprevir, reference compound], for which, in assay [1] (increasing concentrations), the “degradation of transiently expressed HCV NS3 (decrease in NS3-eGFP abundance)” value is on record as “not observed”. The IC50 in assay [2] is 240 nM; in the assay on HCV in Huh7.5 cells (Huh7.5, 48 h), 138 nM; in the assay on wildtype HCV it was 98 nM. Besides, the “change in antiviral potency, NS3-V55A vs wildtype” value in the assay on HCV(NS3-V55A) stood at 3 fold. Moreover, the “change in antiviral potency, NS3-A156S vs wildtype” value with HCV(NS3-A156S) is 10 fold.

In general, IC50 refers to the concentration that inhibits the measured activity by half.
